One may read the ED50 as the midpoint of the dose-response relation.

Entries after “also recorded” stand apart in the source; their conditions may differ. Where two headings read alike, the source gives them in different places. Where only a bound is given, the exact number is not on record here.

The test system of assay [1] is rats. The following applies: background, cited from earlier work; for anti-proconflict index: Giusti et al. 1991; for potency in antagonizing conflict and proconflict responses: in words.
Assay [2] deals with rats. The assay can be described thus: Vogel punished drinking test, conflict paradigm (anticonflict effect). In kind it is in vivo. The following applies: Rattus norvegicus, iv, 0.25 h; i.v., 15 min before test, shock 0.8 mA; fiducial limits on following line.
Assay [3] can be described thus: Duration of action at doses equipotent to Bretazenil. It is filed as in vivo.
The test system of assay [4] is rats. Kind of assay: Chemical kindling with pentylenetetrazole (PTZ), kindled seizures. In kind it is in vivo, rat. To be noted: per os; for potency relative to diazepam in kindling seizure test: PTZ kindling; for ED50 vs kindled seizures: 30 min before PTZ 30 mg/kg i.p., n 25. How it is done: Kindled seizures were induced in rats by i.p. injection of 30 mg/kg of PTZ every 2nd day for 9 weeks.

Assay [5] has as its system rats. The assay can be described thus: Vogel punished drinking test with PTZ, proconflict paradigm (anti-proconflict effect, anti-proconflict index). In kind it is in vivo, rat. The following applies: for ED50: Rattus norvegicus, iv, 0.25 h, i.v., 15 min before test, PTZ i.p., shock 0.35 mA, fiducial limits on following line; for antiproconflict index compared with reference compounds: in words, vs Bretazenil, prior art compound or diazepam; for anti-proconflict index: ratio of ED50 values anticonflict/antiproconflict.

For assay [6], the system named is rats. Kind of assay: Development of tolerance to the anticonvulsant effect against bicuculline seizures. It is filed as in vivo, rat. To be noted: oral; for development of tolerance to anticonvulsant action: 3 times daily up to 70 days, in words. As to the method:
The bicuculline seizure test (see Massotti et al., J. Pharmacol. Exp. Ther. 256: 1154-1156, 1991) consists in infusing a bicuculline solution (0.27 μmol/kg) into the rat tail vein at a constant rate (0.46 ml/min) and records the first sign of myoclonic jerk and the full myoclonic convulsion. The dose of bicuculline required to elicit these responses was taken as an index of the efficacy of diazepam and inventive compounds against seizures induced by a decrease of GABAergic tone (Massotti et al., J. Pharmacol. Exp. Ther. 256: 1154-1160, 1990). […] Possible development of tolerance to the antagonism of bicuculline convulsion was tested on various days after the beginning of the protracted treatment with the inventive compounds.

The subject of assay [7] is rats. The following applies: background, in words; cited from earlier work.
The conditions of assay [8]: background, in words; cited from earlier work.

For the compound `CCCN(CCC)C(=O)Cc1c(-c2ccc(Cl)cc2)nc2ccc(Cl)cn12` [alpidem], the anti-proconflict index in assay [1] is listed as ~1.

As to `CC(C)NC(=O)c1ncn2c1CN=C(c1ccccc1Br)c1cc(F)ccc1-2` [Example 11(b), 6-(2-Bromophenyl)-8-fluoro-N-(1-methylethyl)-4-H-imidazo[1,5-a][1,4]benzodiazepine-3-carboxamide], the 50% effect level in assay [2] (ED50) was put at a dose of 1.72 µmol/kg. Also, the duration of action in assay [3] (equipotent doses to Bretazenil) was 3 to 6 h. The “potency relative to diazepam in kindling seizure test” value (“potency relative to diazepam” below) in assay [4] is given as 2.5 fold. In assay [5], the ED50 amounted to 0.52 µmol/kg and the “antiproconflict index compared with reference compounds” value (from here on “antiproconflict index”) is reported as “better than diazepam”.

For `Cc1ccc(-c2nc3ccc(C)cn3c2CC(=O)N(C)C)cc1` [zolpidem], the anti-proconflict index in assay [1] is ~1.

As to `CCNC(=O)c1ncn2c1CN=C(c1ccccc1Br)c1cc(F)ccc1-2` [Example 10, 6-(2-Bromophenyl)-N-ethyl-8-fluoro-4H-imidazo[1,5-a][1,4]-benzodiazepine-3-carboxamide], in assay [2], the ED50 was 2.8 µmol/kg. For the same compound, in assay [4], the “potency relative to diazepam” value stood at 12 fold. For the same compound, in assay [5], the 50% effect level (ED50) was put at a dose of 0.079 µmol/kg, the “antiproconflict index” value is “antiproconflict index larger than that of Bretazenil” and the “anti-proconflict index” value turned out to be 35.

On to `NC(=O)c1ncn2c1CN=C(c1ccccc1Cl)c1cc(Cl)ccc1-2` [8-chloro-6-(2-chlorophenyl) -4H-imidazo-[1,5-a][1,4]benzodiazepine-3-carboxamide, reference compound], for which the ED50 came to 2 µmol/kg in assay [2] and 0.45 µmol/kg in assay [5]. Further, the “anti-proconflict index” value in assay [5] is 5.0.

`NC(=O)c1ncn2c1CN=C(c1ccccc1Br)c1cc(F)ccc1-2` [Example 9, 6-(2-Bromophenyl)-8-fluoro-4H-imidazo[1,5-a][1,4]benzodiazepine-3-carboxamide]: it took a dose of 2.9 µmol/kg to reach the 50% effect level in assay [2] (ED50). In assay [6] (3 times daily), the “days of treatment without anticonvulsant tolerance” value is ≥ 70 days. Also, in assay [6], the “development of tolerance to anticonvulsant action” value is recorded as “maintained its anticonvulsant effect unabated without tolerance”. In addition, in assay [4], the “ED50 vs kindled seizures” value was 0.25 (.071-0.883) and the “potency relative to diazepam” value is recorded as “approximately 20 fold”. In addition, in assay [5], the 50% effect level (ED50) was put at a dose of 0.061 µmol/kg, the “antiproconflict index” value is given as “antiproconflict index larger than that of Bretazenil” and the “anti-proconflict index” value worked out at 48.

`CCCNC(=O)c1ncn2c1CN=C(c1ccccc1Br)c1cc(F)ccc1-2` [Example 11(a)] displayed an ED50 in assay [2] of 2.74 µmol/kg. Besides, the duration of action in assay [3] (equipotent doses to Bretazenil) was 3 to 6 h. Moreover, in assay [4], the “potency relative to diazepam” value is listed as 2.2 fold. In assay [5], the ED50 is 0.44 µmol/kg and the “antiproconflict index” value is reported as “better than diazepam”.

As to `Cc1nnc2n1-c1ccc(Cl)cc1C(c1ccccc1)=NC2` [alprazolam], in assay [1], the “potency in antagonizing conflict and proconflict responses” value is “surpassed those of the anxiolytic BZD ligands diazepam, zolpidem, alpidem, and midazolam; also recorded: significantly more potent in antagonizing the proconflict effect”; the anti-proconflict index is ~10.

As to `CC(C)(C)OC(=O)c1ncn2c1[C@@H]1CCCN1C(=O)c1c(Br)cccc1-2` [Bretazenil, reference compound], the values for the ED50 in assay [2] and in assay [5] were 2.4 µmol/kg and 0.2 µmol/kg, respectively. The “potency in antagonizing conflict and proconflict responses” value in assay [1] was “surpassed those of the anxiolytic BZD ligands diazepam, zolpidem, alpidem, and midazolam; also recorded: significantly more potent in antagonizing the proconflict effect”. Besides, the anti-proconflict index in assay [1] was ~10; in assay [5], 12. Further, in assay [3] (Bretazenil, equipotent dose), the duration of action was 0.25 to 0.75 h.

For the compound `O=C1CN=C(c2ccccc2Cl)c2cc([N+](=O)[O-])ccc2N1` [clonazepam], in assay [1], the “potency in antagonizing conflict and proconflict responses” value is “surpassed those of the anxiolytic BZD ligands diazepam, zolpidem, alpidem, and midazolam; also recorded: significantly more potent in antagonizing the proconflict effect”; the anti-proconflict index is ~10. Also, the “prevention of development of kindling seizures” value in assay [7] was “powerful agents to prevent the development of seizures”. Also, the “development of tolerance in chronic maintenance therapy” value in assay [8] is on record as “rapid development of tolerance”.

As for `CN1C(=O)CN=C(c2ccccc2)c2cc(Cl)ccc21` [Diazepam, reference compound], the ED50 was determined as 2 µmol/kg in assay [2] and 1.9 µmol/kg in assay [5]. Moreover, the anti-proconflict index in assay [1] is ~1; in assay [5], 1. Besides, the “prevention of development of kindling seizures” value in assay [7] is on record as “powerful agents to prevent the development of seizures”. The “development of tolerance to anticonvulsant action” value in assay [6] is reported as “developed after a few days of treatment”. In assay [4], the “ED50 vs kindled seizures” value was 5.7 (2.9-11.2). In assay [8], the “development of tolerance in chronic maintenance therapy” value was “rapid development of tolerance”.

In the case of `O=C(NCC1CC1)c1ncn2c1CN=C(c1ccccc1Br)c1cc(F)ccc1-2` [Example 11(d), 6-(2-Bromophenyl)-N-[(cyclopropyl)methyl]-8-fluoro-4H-imidazo[1,5-a][1,4]benzodiazepine-3-carboxamide], the ED50 in assay [2] came to 3.3 µmol/kg. For the same compound, the duration of action in assay [3] (equipotent doses to Bretazenil) lay within 3 to 6 h. In addition, the “potency relative to diazepam” value in assay [4] worked out at 2 fold. For the same compound, in assay [5], it took a dose of 0.43 µmol/kg to reach the 50% effect level (ED50) and the “antiproconflict index” value was “better than diazepam”.

Regarding `Cc1ncc2n1-c1ccc(Cl)cc1C(c1ccccc1F)=NC2` [midazolam], in assay [1], the anti-proconflict index was ~1.

Regarding `C=CCNC(=O)c1ncn2c1CN=C(c1ccccc1Br)c1cc(F)ccc1-2` [Example 11(c), 6-(2-Bromophenyl)-8-fluoro-N-(2-propenyl)-4H-imidazo[1,5-a][1,4]benzodiazepine-3-carboxamide], it took a dose of 3.6 µmol/kg to reach the 50% effect level in assay [2] (ED50). In assay [5], the ED50 turned out to be 0.18 µmol/kg, the “antiproconflict index” value is reported as “antiproconflict index larger than that of Bretazenil” and the “anti-proconflict index” value was 20.

Source of the values: US5317018A, “Benzodiazepines and compositions for treating anxiety and panic disorders, and idiopathic and psychomotor epilepsy” (priority 1992, dated 1994).
